Data taken from patent publication US20100311674A1, “PHARMACEUTICAL COMPOSITIONS WITH A MECHANISM OF MULTI-TARGET RECEPTOR RETROACTION FOR TREATING DEPRESSION” (Yu-Fen Chi, priority 2007, published 2010).

Legend:
ICR mice [1] = assay: Mouse tail-hanging experiment (Experiment 3); assay type: in vivo
Description: 3.1 Experimental animals: ICR mice, male, 22.0±2 g of body weight, secondary, are provided by the Experimental Animal Science Department of Capital Medical University, Beijing. 3.2 Experiment pharmaceuticals: The pharmaceutical of Embodiment 2 is provided by Beijing Wormer Biotech. […] High dose of Embodiment 2 (80 mg/kg/d); 2. middle dose of Embodiment 2 (40 mg/kg/d); and 3. low dose of Embodiment 2 (20 mg/kg/d). 3.5.1 Group division and administration of drug: The mice are grouped randomly, and 10 mice are in each group. 1. High dose of Embodiment 2 (80 mg/kg, P.O., administered for 7 days); 2. middle dose of Embodiment 2 (40 mg/kg, P.O., administered for 7 days); 3. low dose of Embodiment 2 (20 mg/kg, P.O., administered for 7 days); 4. […] After 1 hour of the last administration of drug, the mouse tail-hanging experiment is proceeded. 3.5.2 Experimental method: The mouse's tail (1 cm to the tail end) is taped on the wood strip higher than the platform for 5 cm and hung up for 6 minutes. The time of non-movement of the mouse for the last 5 minutes is recorded. 3.5.3 Statistic calculation: The experimental data are represented as X±SD, and the experimental result is calculated as ANOVA by SPSS 11.5 statistic software.

ICR mice [2] = assay: Resetpine-induced mouse body temperature decrease experiment (Experiment 6); assay type: in vivo
Text: 6.1 Experimental animals: ICR mice, male, 22.0±2 g of body weight, secondary, are provided by the Experimental Animal Science Department of Capital Medical University, Beijing.
6.2 Experiment pharmaceuticals: The pharmaceutical of Embodiment 3 is provided by Beijing Wonner Biotech. Ltd. Co., Paroxetine (Paxil) is the product of Zhong Mei Tianjin Smith Kline pharmaceuticals Co. Ltd., and Resetpine is the product of Guangdong BangMin Pharmaceutical Co., Ltd.
6.4 Dose designs: 1. High dose of Embodiment 3 (80 mg/kg/d); 2. middle dose of Embodiment 3 (40 mg/kg/d); and 3. low dose of Embodiment 3 (20 mg/kg/d).
6.5.1 Group division and administration of drug: The mice are grouped randomly, and 10 mice are in each group. 1. High dose of Embodiment 3 (80 mg/kg, P.O., administered for 7 days); 2. middle dose of Embodiment 3 (40 mg/kg, P.O., administered for 7 days); 3. low dose of Embodiment 3 (20 mg/kg, P.O., administered for 7 days); 4.
6.5.2 Experimental method: After 1 hour of the last administration of drug on the eighth day, the mouse's anal temperature is determined. […] After 4 hours of injecting Resetpine, the mouse's anal temperature is determined once again. […]
6.5.3 Statistic calculation: The experimental data are represented as X±SD, and the experimental result is calculated as ANOVA by SPSS 11.5 statistic software.

[3] = test system: unpredictable long-term stimulus model; assay: Step-through test (passive avoidance), unpredictable long-term stimulus model (Experiment 8); assay type: in vivo, rat; conditions: 2 mg/kg/d into the stomach, 24 days
Text: 7.5.2 Passive avoidance experiment (Step-through test): The step through box is configured by the light chamber and the dark chamber, and a channel is linked between the bright chamber and the dark chamber for mouse entrance and exit. The grille of the dark chamber is connected to the electric shock equipment, and a mobile plate is set there between. If the rat enters into the dark chamber, the rat will be electrically shocked. During training, the rat is placed in the light chamber and is back in the hole for adaptation for 5 minutes. Then the plate is removed and the rat is observed for another 5 minutes. The time that the rat enters into for the first time is recorded (electric-shocking latent period), and the time thereof is the learning record. After 24 hours, the test is repeated. The plate is removed and the dark chamber is electrified for 5 minutes so as to observe the time that the rat enters into the dark chamber for the first time. This is thereof the memory record.
Unpredictable long-term stimulus model: Health Wistar male rats, secondary, 240˜270 g of body weight, are purchased from Beijing Vital River Experimental Animal Technology Ltd. Co. (The quality certificate number: SOCK (JING) 2002-2003). […]
8.6 Statistic calculation: The experimental data are represented as […], and the experimental result is calculated as ANOVA by SPSS 11.5 statistic software.

SMILES: Fc1ccc([C@@H]2CCNC[C@H]2COc2ccc3c(c2)OCO3)cc1 [Paroxetine]
- Time of non-movement (ICR mice [1]; 3 mg/kg P.O. 7 days, 1 h after last dose, last 5 of 6 min): 75.33 ± 22.91 s
- Effect on time of non-movement after the mouse's tail is hung up (in words) (ICR mice [1]; middle dose of Embodiment 2, Paroxetine, significantly different from control): decrease the time of non-movement
- Decreased temperature (ICR mice [2]; 3 mg/kg P.O. 7 days, 4 h after Resetpine 2 mg/kg i.p.): 2.38 ± 0.69 °C
- Effect on reduced body temperature induced by Resetpine (in words) (ICR mice [2]; high, middle and low doses of Embodiment 3, Paroxetine): decrease the reduced body temperature induced by Resetpine
- Latent period of first day ([3]; learning record): 75.75 ± 46.52 s
- Latent period of second day ([3]; memory record): 257.46 ± 66.92 s
